Experimental data from patent publication US8263605B2, “Modulators of muscarinic receptors” (Vertex Pharmaceutical Incorporated, priority 2006, dated 2012).

Tests used:
M4 muscarinic receptor = biological target: T1, M4 muscarinic receptor (Homo sapiens, UniProt P08173); test: Functional mobilization of intracellular calcium (FLIPR), M4-CHO cells; type: cell-based; conditions: for Emax: 100% efficacy is the maximum response obtained with the Carbachol control; for M4 Activity: CHO cells expressing M4, calcium mobilization
T1 construct: expressed in transfected cells; host or cells: CHO (M4-CHO)
T1 sequence (P08173 1-479): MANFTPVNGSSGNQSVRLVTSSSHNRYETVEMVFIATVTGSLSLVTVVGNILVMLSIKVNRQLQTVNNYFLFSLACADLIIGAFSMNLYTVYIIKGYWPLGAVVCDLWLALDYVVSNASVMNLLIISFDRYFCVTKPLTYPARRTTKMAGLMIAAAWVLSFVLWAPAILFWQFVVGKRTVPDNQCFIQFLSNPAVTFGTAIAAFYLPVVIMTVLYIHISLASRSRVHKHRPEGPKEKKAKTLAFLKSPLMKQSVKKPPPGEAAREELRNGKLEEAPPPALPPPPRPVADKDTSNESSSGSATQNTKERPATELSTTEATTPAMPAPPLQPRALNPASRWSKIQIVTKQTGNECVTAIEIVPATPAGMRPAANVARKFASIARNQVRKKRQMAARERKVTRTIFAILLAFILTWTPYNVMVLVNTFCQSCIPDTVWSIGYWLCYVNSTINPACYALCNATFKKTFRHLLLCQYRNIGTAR
Method: (§1) Functional Mobilization of Intracellular Calcium to Determine Muscarinic Receptor Activity:
(§2) CHO cells expressing muscarinic receptors (M1 to M5) are grown as monolayers in tissue culture flasks at 37° C. in a humidified atmosphere containing 5% CO2 and passaged every 3-5 days. The growth media is Dulbecco's modified eagles medium (DMEM, Gibco Cat#12430-054), containing 25 mM Hepes and supplemented with Fetal Bovine Serum (Hyclone, cat# SH30071.03), 0.1 mM of MEM non-essential amino acids (GIBCO, Cat#11140-050), 1 mM MEM Sodium Pyruvate (GIBCO Cat#11360-070) and 100 units/ml of Penicillin G and 100 μg/ml of Streptomycin (GIBCO Cat#15140-122). The recombinant muscarinic receptor cell lines are grown under antibiotic pressure with media containing 25 μg/ml zeocin and 500 μg/ml G418 (M1-CHO), 4 μg/ml puromycin, 50 μg/ml zeocin and 2.5 μg/ml blasticidin (M2 and M4-CHO) or 50 μg/ml zeocin and 4 μg/ml puromycin (M3 and M5-CHO).
(§3) Cells are harvested at 80-90% confluence using Versene (GIBCO Cat#15040-066), collected by centrifugation and seeded 18-24 hours prior to running the calcium assay at a density of 5,000-10,000 cells/well in […], clear-bottomed 384-well plates (BD Biocoat, poly-D-lysine, Cat#356663). The day of the experiment, the cells are washed with a plate washer (Bioteck Instrunents, ELX 405) using bath 1 buffer (140-mM NaCl, 4.5-mM KCl, 2-mM CaCl2, 1-mM MgCl2, 10-mM Hepes-Na, 10-mM Glucose, pH 7.4, with NaOH) containing 1 mM Probenecid. Next, the calcium dye Fluo-3 (25 μl/well of Fluo-3 AM at 4 μM, Molecular Probes F-1241, in Bath 1 buffer containing 1 mM Probenecid) is added to the 25 μl of Bath 1 remaining in each well after the plate wash and the dye is loaded at 37° C. in the tissue culture incubator for 60-90 min. The fluorescent dye is removed using the plate washer with Bath 1 containing 1 mM Probenecid, leaving 25 μl/well of this solution after the wash. Alternatively, cells can be loaded with the calcium indicator from Molecular Devices (Calcium 3 Assay Reagents, Cat # R7181) adding 5 μl of a 5× solution dye in Bath 1 containing 1 mM Probenecid (10 ml per dye flask cat# R7182 to generate a solution 20×) to 20 μl of the same buffer. After loading for 60 min, the experiment can be run without having to remove the dye.
(§4) Compounds are prepared at a 2× fold concentration in a 96-well plate (round bottom, Costar Corning cat#3656), by reconstituting the pre-spotted compounds in bath 1 containing 1 mM probenecid. The final concentration DMSO is 0.5%, and the amount of DMSO is normalized across the assay plate. To determine an agonist action of the compounds on muscarinic receptors, the reconstituted compounds are added (25 μl compound/well) to the cell assay plate (containing 25 μl/well) using the multi-channel robotic system of the FLIPR 3 Instrument (Molecular Devices, Sunnyvale, Calif.). To determine a functional inhibitory action of the compounds on muscarinic receptors, the reconstituted compounds are added (25 μl compound/well) to the assay plate and pre-incubated for 15 min prior to adding 25 μl of Carbachol at 3× the EC80 for each muscarinic subtype. Alternatively, the compounds can be co-applied simultaneously with the agonist. In both assay modes, the fluorescence is recorded for 60 sec (excitation wavelength is […] and emission wavelength 540 nm) using the FLIPR 3 instrument.
(§5) The potency, efficacy and selectivity of the muscarinic compounds were evaluated by screening the compound activity across the whole family (M1 to M5 cells). Compounds were also screened for activity on other proteins such as other GPCRs and ion channels to determine selectivity on M4 receptors.
(§6) Examples of activities and efficacies of the muscarinic compounds of formulae (I, Ia, Ib, Ic, Id, and Ie) on modulating M1 and M4 receptors are shown below in Table 4. […]

M1 muscarinic receptor = biological target: T2, M1 muscarinic receptor (Homo sapiens, UniProt P11229); test: Functional mobilization of intracellular calcium (FLIPR), M1-CHO cells; type: cell-based; conditions: for Emax: 100% efficacy is the maximum response obtained with the Carbachol control; for M1 Activity: CHO cells expressing M1, calcium mobilization
T2 construct: expressed in transfected cells; host or cells: CHO (M1-CHO)
T2 sequence (P11229 1-460): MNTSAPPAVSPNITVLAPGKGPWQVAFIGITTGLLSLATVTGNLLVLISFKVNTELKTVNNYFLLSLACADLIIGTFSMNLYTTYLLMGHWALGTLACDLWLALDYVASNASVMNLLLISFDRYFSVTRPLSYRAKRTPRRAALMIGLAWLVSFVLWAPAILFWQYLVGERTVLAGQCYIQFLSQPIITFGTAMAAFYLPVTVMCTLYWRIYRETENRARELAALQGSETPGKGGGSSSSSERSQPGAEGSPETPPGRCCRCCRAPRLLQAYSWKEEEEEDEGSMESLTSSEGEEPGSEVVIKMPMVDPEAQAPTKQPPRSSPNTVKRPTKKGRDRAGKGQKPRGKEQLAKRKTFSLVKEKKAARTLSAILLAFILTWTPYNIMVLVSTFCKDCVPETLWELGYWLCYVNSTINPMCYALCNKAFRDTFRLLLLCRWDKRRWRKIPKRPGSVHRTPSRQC
Method: as §1, §2, §3, §4, §5, §6

SMILES | Emax (M4 muscarinic receptor) [%] | M4 Activity (M4 muscarinic receptor) | Emax (M1 muscarinic receptor) [%] | M1 Activity (M1 muscarinic receptor)
CC#CCOC(=O)N1C2CCC1CC(N1CCC3(CCN(C(=O)N(C)C)c4ccccc43)CC1)C2 (centres unmarked) [compound 29] | 25 to 100 | +++ (activity was measured to be less than 2.0 μM) | > 100 | +++ (activity was measured to be less than 2.0 μM)
CN(C)C(=O)N1CCC2(CCN(C3CC4CCC(C3)N4c3cnccn3)CC2)c2ccccc21 (centres unmarked) [compound 30] | 25 to 100 | +++ (activity was measured to be less than 2.0 μM) | 25 to 100 | +++ (activity was measured to be less than 2.0 μM)
Cc1nsc(N2C3CCC2CC(N2CCC4(CCN(C(=O)N(C)C)c5ccccc54)CC2)C3)n1 (centres unmarked) [compound 31] | 25 to 100 | +++ (activity was measured to be less than 2.0 μM) | 25 to 100 | +++ (activity was measured to be less than 2.0 μM)
CN(C)C(=O)N1CCC2(CCN(C3CCNCC3)CC2)c2ccccc21 [compound 33] | < 25 | + (activity was measured to be greater than 10.0 μM) | < 25 | + (activity was measured to be greater than 10.0 μM)
CC(=O)N1CCC2(CCN(C3CCNCC3)CC2)c2ccccc21 [compound 34] | < 25 | ++ (activity was measured to be from 2.0 μM to 10.0 μM) | < 25 | + (activity was measured to be greater than 10.0 μM)
CN(C)C(=O)N1CCC2(CCN(C3CCN(c4nccs4)CC3)CC2)c2ccccc21 [compound 35] | < 25 | ++ (activity was measured to be from 2.0 μM to 10.0 μM) | < 25 | ++ (activity was measured to be from 2.0 μM to 10.0 μM)
CC(=O)N1CCC2(CCN(C3CCN(c4ncc(C)s4)CC3)CC2)c2ccccc21 [compound 37] | < 25 | + (activity was measured to be greater than 10.0 μM) | < 25 | + (activity was measured to be greater than 10.0 μM)
COC(=O)N1CCC(N2CCC3(CC2)CN(C(=O)N(C)C)c2ccccc23)CC1 [compound 38] | 25 to 100 | +++ (activity was measured to be less than 2.0 μM) | 25 to 100 | ++ (activity was measured to be from 2.0 μM to 10.0 μM)
CCCOC(=O)N1CCC(N2CCC3(CC2)CN(C(=O)N(C)C)c2ccccc23)CC1 [compound 40] | 25 to 100 | +++ (activity was measured to be less than 2.0 μM) | 25 to 100 | +++ (activity was measured to be less than 2.0 μM)
CC(C)OC(=O)N1CCC(N2CCC3(CC2)CN(C(=O)N(C)C)c2ccccc23)CC1 [compound 41] | 25 to 100 | +++ (activity was measured to be less than 2.0 μM) | 25 to 100 | +++ (activity was measured to be less than 2.0 μM)
CN(C)C(=O)N1CC2(CCN(C3CCN(C(=O)OCC(F)F)CC3)CC2)c2ccccc21 [compound 42] | 25 to 100 | +++ (activity was measured to be less than 2.0 μM) | 25 to 100 | +++ (activity was measured to be less than 2.0 μM)
COCCOC(=O)N1CCC(N2CCC3(CC2)CN(C(=O)N(C)C)c2ccccc23)CC1 [compound 43] | 25 to 100 | +++ (activity was measured to be less than 2.0 μM) | 25 to 100 | +++ (activity was measured to be less than 2.0 μM)
C#CCCOC(=O)N1CCC(N2CCC3(CC2)CN(C(=O)N(C)C)c2ccccc23)CC1 [compound 44] | 25 to 100 | +++ (activity was measured to be less than 2.0 μM) | 25 to 100 | +++ (activity was measured to be less than 2.0 μM)
COC(=O)N1C2CCC1CC(N1CCC3(CC1)CN(C(=O)N(C)C)c1ccccc13)C2 (centres unmarked) [compound 45] | 25 to 100 | +++ (activity was measured to be less than 2.0 μM) | 25 to 100 | ++ (activity was measured to be from 2.0 μM to 10.0 μM)
CCOC(=O)N1C2CCC1CC(N1CCC3(CC1)CN(C(=O)N(C)C)c1ccccc13)C2 (centres unmarked) [compound 46] | 25 to 100 | +++ (activity was measured to be less than 2.0 μM) | 25 to 100 | +++ (activity was measured to be less than 2.0 μM)
CCCOC(=O)N1C2CCC1CC(N1CCC3(CC1)CN(C(=O)N(C)C)c1ccccc13)C2 (centres unmarked) [compound 47] | 25 to 100 | +++ (activity was measured to be less than 2.0 μM) | 25 to 100 | +++ (activity was measured to be less than 2.0 μM)
CC(C)OC(=O)N1C2CCC1CC(N1CCC3(CC1)CN(C(=O)N(C)C)c1ccccc13)C2 (centres unmarked) [compound 48] | 25 to 100 | +++ (activity was measured to be less than 2.0 μM) | 25 to 100 | +++ (activity was measured to be less than 2.0 μM)
CN(C)C(=O)N1CC2(CCN(C3CC4CCC(C3)N4C(=O)OCC(F)F)CC2)c2ccccc21 (centres unmarked) [compound 49] | 25 to 100 | +++ (activity was measured to be less than 2.0 μM) | 25 to 100 | +++ (activity was measured to be less than 2.0 μM)
COCCOC(=O)N1C2CCC1CC(N1CCC3(CC1)CN(C(=O)N(C)C)c1ccccc13)C2 (centres unmarked) [compound 50] | 25 to 100 | +++ (activity was measured to be less than 2.0 μM) | 25 to 100 | +++ (activity was measured to be less than 2.0 μM)
C#CCCOC(=O)N1C2CCC1CC(N1CCC3(CC1)CN(C(=O)N(C)C)c1ccccc13)C2 (centres unmarked) [compound 51] | 25 to 100 | +++ (activity was measured to be less than 2.0 μM) | 25 to 100 | +++ (activity was measured to be less than 2.0 μM)
